Experimental data as given in ChEMBL document CHEMBL1131505, “(+)-cis-N-ethyleneamino-N-normetazocine derivatives. Novel and selective sigma ligands with antagonist properties” (J Med Chem, 1998).

What was measured:
[1] = biological target: Sigma 2 receptor; experiment: Inhibition of [3H]DTG binding to sigma-2 sites of guinea pig brain membranes
[2] = Compound was tested for its binding affinity towards PCP receptor in rat membranes in the presence of [3H]-(+)-SKF- 10,047; format: cell membranes
[3] = biological target: T1, Muscarinic acetylcholine receptor M2 (Rattus norvegicus, UniProt P10980); experiment: Inhibition of [3H]N-methylscopolamine binding to Muscarinic acetylcholine receptor M2 of rat heart membranes; format: cell membranes, Membrane
T1 sequence (P10980 whole entry): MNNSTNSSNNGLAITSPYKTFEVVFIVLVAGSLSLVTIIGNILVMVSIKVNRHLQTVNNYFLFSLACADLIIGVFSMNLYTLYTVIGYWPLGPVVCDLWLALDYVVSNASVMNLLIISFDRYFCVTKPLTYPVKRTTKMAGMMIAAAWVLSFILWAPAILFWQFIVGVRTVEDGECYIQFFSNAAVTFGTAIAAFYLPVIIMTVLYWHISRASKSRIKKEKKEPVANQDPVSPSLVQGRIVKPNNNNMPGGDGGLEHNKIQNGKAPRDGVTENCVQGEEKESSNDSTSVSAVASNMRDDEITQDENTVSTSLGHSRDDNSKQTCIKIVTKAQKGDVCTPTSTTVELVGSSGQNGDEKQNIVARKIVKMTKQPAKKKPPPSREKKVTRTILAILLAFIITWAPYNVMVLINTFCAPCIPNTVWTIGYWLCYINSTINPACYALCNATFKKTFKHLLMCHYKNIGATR

[4] = biological target: T2, Opioid receptor (Rattus norvegicus, UniProt P33533+P34975+P33535); experiment: Inhibition of [3H]naloxone binding to Opioid receptors of rat brain membranes; format: cell membranes, Membrane
[5] = biological target: T3, D(2) dopamine receptor (Rattus norvegicus, UniProt P61169); experiment: Inhibition of [3H]spiroperidol binding to Dopamine receptor D2 of rat striatal membranes; format: cell membranes, Membrane
T3 sequence (P61169 whole entry): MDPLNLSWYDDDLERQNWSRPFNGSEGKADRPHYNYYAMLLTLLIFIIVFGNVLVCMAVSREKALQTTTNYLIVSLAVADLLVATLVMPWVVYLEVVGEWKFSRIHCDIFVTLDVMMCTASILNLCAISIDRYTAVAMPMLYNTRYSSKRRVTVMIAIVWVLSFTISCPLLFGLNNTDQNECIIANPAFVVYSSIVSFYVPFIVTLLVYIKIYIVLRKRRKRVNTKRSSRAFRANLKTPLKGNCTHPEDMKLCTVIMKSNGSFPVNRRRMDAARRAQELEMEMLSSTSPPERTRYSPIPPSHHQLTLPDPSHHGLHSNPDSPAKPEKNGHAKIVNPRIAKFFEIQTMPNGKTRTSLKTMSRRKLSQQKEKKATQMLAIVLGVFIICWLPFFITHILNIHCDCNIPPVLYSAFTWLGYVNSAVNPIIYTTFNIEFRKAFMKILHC

[6] = biological target: Serotonin 2 (5-HT2) receptor; experiment: Inhibition of [3H]ketanserin binding to 5-hydroxytryptamine 2 receptor of guinea pig frontal cortex membranes; format: tissue-based, Cavia porcellus
[7] = biological target: T2, Opioid receptor; experiment: Compound was tested for its binding affinity towards Opioid receptors in rat membranes in the presence of [3H]naloxone; format: cell membranes
[8] = biological target: T3, D(2) dopamine receptor; experiment: Binding affinity towards Dopamine receptor D2 in the rat striatal membranes using [3H]spiroperidol; format: cell membranes, Striatum, Membrane

Compound: C[C@@H]1[C@@H]2Cc3ccc(O)cc3[C@]1(C)CCN2CCNC1CCCCC1
- Ki [1]: 328 nM
- Ki [2]: > 10000 nM
- Ki [3]: > 10000 nM
- Ki [4]: 1466 nM
- Ki [5]: > 10000 nM
- Ki [6]: > 10000 nM

Compound: C=CCN1CC[C@]2(C)c3cc(O)ccc3CC1[C@@H]2C (single isomer, unassigned; (+))
- Ki [2]: 448 nM
- Ki [3]: > 10000 nM
- Ki [7]: 1900 nM
- Ki [5]: > 10000 nM
- Ki [6]: > 10000 nM

Compound: C[C@@H]1[C@@H]2Cc3ccc(O)cc3[C@]1(C)CCN2CCNCc1ccccc1
- Ki [1]: 187 nM
- Ki [7]: 366 nM

Compound: C[C@@H]1[C@@H]2Cc3ccc(O)cc3[C@]1(C)CCN2CCN1CCCCCC1
- Ki [1]: 151 nM
- Ki [2]: 50.2 nM
- Ki [3]: 1840 nM
- Ki [4]: 9128 nM
- Ki [5]: > 10000 nM
- Ki [6]: > 10000 nM

Compound: CCN(CC)CCN1CC[C@@]2(C)c3cc(O)ccc3C[C@H]1[C@H]2C
- Ki [1]: 378 nM
- Ki [2]: 7640 nM
- Ki [3]: 1990 nM
- Ki [4]: 12290 nM
- Ki [5]: > 10000 nM
- Ki [6]: > 10000 nM

Compound: C[C@@H]1[C@@H]2Cc3ccc(O)cc3[C@]1(C)CCN2CCN1CCOCC1
- Ki [1]: 300 nM
- Ki [2]: > 1000 nM
- Ki [3]: 419 nM
- Ki [4]: 8168 nM
- Ki [5]: > 10000 nM
- Ki [6]: > 10000 nM

Compound: C[C@@H]1[C@@H]2Cc3ccc(O)cc3[C@]1(C)CCN2CCN1CCCC1
- Ki [1]: 260 nM
- Ki [2]: > 10000 nM
- Ki [3]: 1950 nM
- Ki [4]: 3800 nM
- Ki [5]: > 10000 nM
- Ki [6]: > 10000 nM

Compound: CC(C)=CCN1CC[C@]2(C)c3cc(O)ccc3C[C@H]1[C@H]2C (single isomer, unassigned) [(+)-PENTAZOCINE]
- Ki [2]: 4320 nM
- Ki [7]: 2370 nM

Compound: C[C@@H]1[C@@H]2Cc3ccc(O)cc3[C@]1(C)CCN2CCN1CCCCC1
- Ki [1]: 114 nM
- Ki [2]: > 10000 nM
- Ki [3]: 7800 nM
- Ki [4]: 12000 nM
- Ki [8]: > 10000 nM
- Ki [6]: > 10000 nM

Compound: C[C@@H]1[C@@H]2Cc3ccc(O)cc3[C@]1(C)CCN2CCN(C)c1ccccc1
- Ki [1]: 124 nM
- Ki [4]: 28.8 nM

Compound: C[C@@H]1[C@@H]2Cc3ccc(O)cc3[C@]1(C)CCN2CCN(C)C
- Ki [1]: 347 nM
- Ki [2]: 3380 nM
- Ki [3]: > 10000 nM
- Ki [4]: 2888 nM
- Ki [5]: > 10000 nM
- Ki [6]: > 10000 nM

Compound: CCN(CCN1CC[C@@]2(C)c3cc(O)ccc3C[C@H]1[C@H]2C)c1ccccc1
- Ki [1]: 151 nM
- Ki [4]: 211 nM

Compound: C[C@@H]1[C@@H]2Cc3ccc(O)cc3[C@]1(C)CCN2CCNc1ccccc1
- Ki [1]: 111 nM
- Ki [4]: 79.8 nM
